This note sets out measurements from patent US10959432B2, “Microbiocidal oxadiazole derivatives” (Syngenta Participations AG, priority 2016, dated 2021).

The inhibition is the percentage by which the read-out fell short of the control. As a reminder, the melting point is the temperature of the solid-liquid transition.

Values joined by “and” are separate entries in the source; they are usually repeats but may differ in a detail not shown here. Equal entries are not always repeated.

The test system of data set [1] is Puccinia recondita f. sp. tritici. Description: Fungicidal activity against Puccinia recondita f. sp. tritici / wheat / leaf disc preventative (brown rust). It counts as in vivo. Conditions: foliar, 200 ppm in the applied formulation, wheat leaf segments cv. Kanzler, preventative (inoculated 1 day after application), assessed 7 to 9 days after application, read-out: disease control compared to untreated control leaf disks. The essentials:
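Preventative leaf-segment test: compound sprayed at 200 ppm onto wheat (cv. Kanzler) segments, brown rust spores applied 1 day after. Kept at 19C and 75% rh under 12 h light/dark cycles; disease control versus untreated check read 7 to 9 days post-application.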

Data set [2] has the same test system. Kind of data set: Fungicidal activity against Puccinia recondita f. sp. tritici / wheat / leaf disc curative (brown rust). It counts as in vivo. The settings on record: foliar, 200 ppm in the applied formulation, wheat leaf segments cv. Kanzler, curative (applied 1 day after inoculation), assessed 6 to 8 days after application, read-out: disease control compared to untreated control leaf disks. The essentials:
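Curative test: compound, diluted from DMSO stock into water, applied one day after spore inoculation of wheat (cv. Kanzler) leaf segments kept on agar in darkness at 19° C. and 75% RH. Climate-cabinet incubation (19° C., 75% RH, 12 h photoperiod); disease control relative to untreated read 6–8 days post-application.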

Another data set deals with Phakopsora pachyrhizi. Kind of data set: Fungicidal activity against Phakopsora pachyrhizi / soybean / leaf disc preventative (Asian soybean rust). The settings on record: foliar, 200 ppm in the applied formulation, soybean leaf disks, preventative (inoculated one day after application), assessed 12 to 14 days after application, read-out: disease control compared to untreated control leaf disks. It counts as in vivo. The gist of the method:
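Preventative test: compound applied to soybean leaf discs a day before spore inoculation of the lower surface. Discs kept at 20° C and 75% rh, first 24-36 h in darkness, then under 12 h light/day; disease control relative to untreated discs rated 12 to 14 days post-application.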

The subject of data set [3] is Glomerella laqenarium (Colletotrichum lagenarium). Kind of data set: Fungicidal activity against Glomerella lagenarium (Colletotrichum lagenarium) liquid culture / cucumber / preventative (anthracnose). It counts as cell-based. Conditions: Colletotrichum orbiculare; 20 ppm in the applied formulation; liquid culture in PDB, 24° C., 3 to 4 days after application; read-out: disease control compared to untreated control (inhibition of growth measured photometrically). The essentials:
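Test compound, applied from DMSO solution, is combined with PDB containing conidia taken from cryogenic storage. After 3–4 days at 24 °C, growth is measured photometrically and antifungal activity expressed as percent relative to untreated control.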

For a further data set, the system named is Uromyces viciae-fabae. Description: Fungicidal activity against Uromyces viciae-fabae / field bean / leaf disc preventative (faba-bean rust). The format is in vivo. Conditions: foliar, 288 h, 100 ppm in the applied formulation, field bean leaf discs, preventative (inoculated two hours after application), assessed 12 days after application, read-out: disease control compared to untreated control leaf discs. The essentials: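 Field bean leaf discs on water agar treated with 10 μl compound in acetone plus spreader, then spray-inoculated on the lower surface with Uromyces viciae-fabae spores 2 h later. Incubation at 22 °C, 18 h day, 70% RH; percent disease control versus untreated scored 12 days after application, compounds at 100 ppm.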

Compound `CC1CC(NC(=O)c2ccc(-c3noc(C(F)(F)F)n3)cc2F)=NO1` (stereo not shown) [Compound 1b.15, 2-fluoro-N-(5-methyl-4,5-dihydroisoxazol-3-yl)-4-[5-(trifluoromethyl)-1,2,4-oxadiazol-3-yl]benzamide] came in with a melting point of 152.5 to 155.9 °C. Besides, in data set [1], the pest or weed control at 200 ppm is not below 80%. Besides, the pest or weed control at 200 ppm in data set [2] is not below 80%. In the data set on Phakopsora pachyrhizi, the pest or weed control at 200 ppm was not below 80%. In data set [3], the inhibition at 20 ppm is not below 80%. Besides, the pest or weed control at 100 ppm with Uromyces viciae-fabae is not below 80%.

For the compound `O=C(NCC1CCOC1)c1ccc(-c2noc(C(F)(F)F)n2)cc1F` (stereo not shown) [Compound 1b.16, 2-fluoro-N-(tetrahydrofuran-3-ylmethyl)4[5(trifluoromethyl)-1,2,4-oxadiazol-3-yl]benzamide], the melting point was 124.2 to 126.2 °C. Moreover, the pest or weed control at 200 ppm in data set [1] was not below 80%. The pest or weed control at 200 ppm in data set [2] is not below 80%. In addition, the pest or weed control at 200 ppm in the data set on Phakopsora pachyrhizi was not below 80%. The inhibition at 20 ppm in data set [3] was not below 80%. Also, the pest or weed control at 100 ppm with Uromyces viciae-fabae is not below 80%.

`O=C(NCC1CCCO1)c1ccc(-c2noc(C(F)(F)F)n2)cc1F` (stereo not shown) [Compound 1b.17, 2-fluoro-N-(tetrahydrofuran-2-ylmethyl)-4-[5-(trifluoromethyl)-1,2,4-oxadiazol-3-yl]benzamide]: the melting point fell in the range of 95.6 to 96.7 °C. For the same compound, the pest or weed control at 200 ppm in data set [1] is not below 80%. Further, the pest or weed control at 200 ppm in data set [2] is not below 80%. For the same compound, the pest or weed control at 200 ppm with Phakopsora pachyrhizi was not below 80%. Besides, in data set [3], the inhibition at 20 ppm was not below 80%. Further, the pest or weed control at 100 ppm with Uromyces viciae-fabae was not below 80%.

Turning to `O=C(NCC1CCOCC1)c1ccc(-c2noc(C(F)(F)F)n2)cc1F` [Compound 1b.18, 2-fluoro-N-(tetrahydropyran-4-ylmethyl)-4-[5-(trifluoromethyl)-1,2,4-oxadiazol-3-yl]benzamide], the melting point is 134 to 136 °C and 134 to 135.4 °C. Moreover, the pest or weed control at 200 ppm in data set [1] is not below 80%. In addition, the pest or weed control at 200 ppm in data set [2] was not below 80%. In addition, the pest or weed control at 200 ppm with Phakopsora pachyrhizi was not below 80%. In addition, in data set [3], the inhibition at 20 ppm is not below 80%. The pest or weed control at 100 ppm in the data set with Uromyces viciae-fabae was not below 80%.

Consider `O=C(NCC1CC1)c1ccc(-c2noc(C(F)(F)F)n2)cc1F` [Compound 2b.1, N-(cyclopropylmethyl)-2-fluoro-4-[5-(trifluoromethyl)-1,2,4-oxadiazol-3-yl]benzamide], for which the melting point lay in the range of 113.5 to 114.7 °C. Besides, in data set [1], the pest or weed control at 200 ppm was not below 80%. In addition, the pest or weed control at 200 ppm in data set [2] was not below 80%. Moreover, the pest or weed control at 200 ppm in the data set on Phakopsora pachyrhizi is not below 80%. Moreover, in data set [3], the inhibition at 20 ppm was not below 80%. For the same compound, the pest or weed control at 100 ppm with Uromyces viciae-fabae was not below 80%.

On to `C=CCNC(=O)c1ccc(-c2noc(C(F)(F)F)n2)cc1` [Compound 3a.1, N-allyl-4-[5-(trifluoromethyl)-1,2,4-oxadiazol-3-yl]benzamide], for which the melting point was 135 to 136 °C and 135 to 146 °C. In addition, the pest or weed control at 200 ppm in data set [1] is not below 80%. Moreover, the pest or weed control at 200 ppm in data set [2] was not below 80%. The pest or weed control at 200 ppm in the data set on Phakopsora pachyrhizi is not below 80%. In data set [3], the inhibition at 20 ppm was not below 80%. For the same compound, the pest or weed control at 100 ppm in the data set with Uromyces viciae-fabae was not below 80%.

As for `C#CCNC(=O)c1ccc(-c2noc(C(F)(F)F)n2)cc1` [Compound 3a.2, N-prop-2-ynyl-4-[5-(trifluoromethyl)-1,2,4-oxadiazol-3-yl]benzamide], the melting point was in the range of 168.5 to 170 °C. Moreover, the pest or weed control at 200 ppm in data set [1] was not below 80%. Further, in data set [2], the pest or weed control at 200 ppm is not below 80%. Also, the pest or weed control at 200 ppm in the data set on Phakopsora pachyrhizi is not below 80%. In data set [3], the inhibition at 20 ppm was not below 80%. For the same compound, the pest or weed control at 100 ppm in the data set on Uromyces viciae-fabae was not below 80%.

With `CC#CC(C)(C)NC(=O)c1ccc(-c2noc(C(F)(F)F)n2)cc1` [Compound 3a.5, N-(1,1-dimethylbut-2-ynyl)-4-[5-(trifluoromethyl)-1,2,4-oxadiazol-3-yl]benzamide], the melting point fell in the range of 104 to 105.1 °C. Besides, the pest or weed control at 200 ppm in data set [1] is not below 80%. Moreover, the pest or weed control at 200 ppm in data set [2] is not below 80%. In addition, the pest or weed control at 200 ppm in the data set with Phakopsora pachyrhizi was not below 80%. Also, the pest or weed control at 100 ppm with Uromyces viciae-fabae was not below 80%.

Regarding `CC(C)(CO)NC(=O)c1ccc(-c2noc(C(F)(F)F)n2)cc1` [Compound 3a.17, N-(2-hydroxy-1,1-dimethyl-ethyl)-4-[5-(trifluoromethyl)-1,2,4-oxadiazol-3-yl]benzamide], the melting point is 130 to 135 °C. The pest or weed control at 200 ppm in data set [1] was not below 80%. The pest or weed control at 200 ppm in data set [2] is not below 80%. The inhibition at 20 ppm in data set [3] was not below 80%. Besides, the pest or weed control at 100 ppm in the data set with Uromyces viciae-fabae was not below 80%.

As to `CCCNC(=O)c1ccc(-c2noc(C(F)(F)F)n2)cc1F` [Compound 3b.1, 2-fluoro-N-propyl-4-[5-(trifluoromethyl)-1,2,4-oxadiazol-3-yl]benzamide], the melting point lay within 118.5 to 119.9 °C. Moreover, the pest or weed control at 200 ppm in data set [1] was not below 80%. Also, the pest or weed control at 200 ppm in data set [2] is not below 80%. Besides, the pest or weed control at 200 ppm with Phakopsora pachyrhizi is not below 80%. Further, the inhibition at 20 ppm in data set [3] was not below 80%. Besides, in the data set with Uromyces viciae-fabae, the pest or weed control at 100 ppm was not below 80%.

For `CCNC(=O)c1ccc(-c2noc(C(F)(F)F)n2)cc1F` [Compound 3b.2, N-ethyl-2-fluoro-4-[5-(trifluoromethyl)-1,2,4-oxadiazol-3-yl]benzamide], the melting point lay in the range of 125 to 127 °C. The pest or weed control at 200 ppm in data set [1] is not below 80%. The pest or weed control at 200 ppm in data set [2] is not below 80%. For the same compound, the pest or weed control at 200 ppm with Phakopsora pachyrhizi is not below 80%. In addition, in data set [3], the inhibition at 20 ppm is not below 80%. Also, the pest or weed control at 100 ppm in the data set on Uromyces viciae-fabae is not below 80%.

As to `C=CCNC(=O)c1ccc(-c2noc(C(F)(F)F)n2)cc1F` [Compound 3b.3, N-allyl-2-fluoro-4-[5-(trifluoromethyl)-1,2,4-oxadiazol-3-yl]benzamide], the melting point is 108 to 109.3 °C. The pest or weed control at 200 ppm in data set [1] is not below 80%. In data set [2], the pest or weed control at 200 ppm is not below 80%. The pest or weed control at 200 ppm in the data set with Phakopsora pachyrhizi is not below 80%. For the same compound, in data set [3], the inhibition at 20 ppm was not below 80%. In addition, the pest or weed control at 100 ppm with Uromyces viciae-fabae is not below 80%.

In turn, `C#CCNC(=O)c1ccc(-c2noc(C(F)(F)F)n2)cc1F` [Compound 3b.4, 2-fluoro-N-prop-2-ynyl-4-[5-(trifluoromethyl)-1,2,4-oxadiazol-3-yl]benzamide] registered a melting point of 128.2 to 129.4 °C. Further, the pest or weed control at 200 ppm in data set [1] was not below 80%. In data set [2], the pest or weed control at 200 ppm is not below 80%. Moreover, in the data set with Phakopsora pachyrhizi, the pest or weed control at 200 ppm was not below 80%. In addition, in data set [3], the inhibition at 20 ppm is not below 80%. In addition, the pest or weed control at 100 ppm with Uromyces viciae-fabae is not below 80%.

As to `CC(C)CNC(=O)c1ccc(-c2noc(C(F)(F)F)n2)cc1F` [Compound 3b.5, 2-fluoro-N-isobutyl-4-[5-(trifluoromethyl)-1,2,4-oxadiazol-3-yl]benzamide], the melting point was 126.6 to 128.3 °C. Also, the pest or weed control at 200 ppm in data set [1] is not below 80%. For the same compound, the pest or weed control at 200 ppm in data set [2] was not below 80%. Also, the pest or weed control at 200 ppm in the data set on Phakopsora pachyrhizi is not below 80%. The inhibition at 20 ppm in data set [3] was not below 80%. The pest or weed control at 100 ppm with Uromyces viciae-fabae was not below 80%.

`O=C(NCc1ccccc1)c1ccc(-c2noc(C(F)(F)F)n2)cc1F` [Compound 4b.6, N-benzyl-2-fluoro-4-[5-(trifluoromethyl)-1,2,4-oxadiazol-3-yl]benzamide]: the melting point was 146 to 147.7 °C. In data set [1], the pest or weed control at 200 ppm is not below 80%. The pest or weed control at 200 ppm in data set [2] was not below 80%. For the same compound, the pest or weed control at 200 ppm with Phakopsora pachyrhizi is not below 80%. In addition, the pest or weed control at 100 ppm with Uromyces viciae-fabae is not below 80%.

The compound `O=C(NCCc1ccccc1)c1ccc(-c2noc(C(F)(F)F)n2)cc1F` [Compound 4b.8, 2-fluoro-N-(2-phenylethyl)-4-[5-(trifluoromethyl)-1,2,4-oxadiazol-3-yl]benzamide] displayed a melting point of 130 to 131.9 °C. Besides, the pest or weed control at 200 ppm in data set [1] was not below 80%. For the same compound, the pest or weed control at 200 ppm with Phakopsora pachyrhizi is not below 80%. Moreover, the inhibition at 20 ppm in data set [3] was not below 80%. Also, the pest or weed control at 100 ppm with Uromyces viciae-fabae was not below 80%.

`O=C(NCc1cccs1)c1ccc(-c2noc(C(F)(F)F)n2)cc1F` [Compound 5b.1, 2-fluoro-N-(2-thienylmethyl)-4-[5-(trifluoromethyl)-1,2,4-oxadiazol-3-yl]benzamide] yielded a melting point of 142.7 to 143 °C. In data set [1], the pest or weed control at 200 ppm is not below 80%. Besides, the pest or weed control at 200 ppm in data set [2] was not below 80%. Also, the pest or weed control at 200 ppm in the data set on Phakopsora pachyrhizi was not below 80%. Moreover, in the data set on Uromyces viciae-fabae, the pest or weed control at 100 ppm was not below 80%.
